Laboratory results: ChEMBL document CHEMBL1141668, “Synthesis and biological activity of imidazopyridine anticoccidial agents: Part II” (Eur J Med Chem, 2008)

How the values were obtained:
[1] = target: cGMP-dependent protein kinase (Eimeria tenella, UniProt Q8MMZ8); assay: Inhibition of Eimeria tenella cGMP-dependent protein kinase
Eimeria mitis [2] = assay: Anticoccidial activity against Eimeria mitis in chickens assessed as reduction of oocysts at 6.25 ppm measured after 8 days by ExMAC assay relative to untreated control; assay type: functional; design: scale not given: the % may be the effect or the level left
Eimeria tenella [3] = assay: Anticoccidial activity against Eimeria tenella in chickens assessed as reduction of oocysts at 6.25 ppm measured after 8 days by ExMAC assay relative to untreated control; assay type: functional; design: scale not given: the % may be the effect or the level left
Eimeria acervulina [4] = assay: Anticoccidial activity against Eimeria acervulina in chickens assessed as reduction of oocysts at 3.1 ppm measured after 8 days by ExMAC assay relative to untreated control; assay type: functional; design: scale not given: the % may be the effect or the level left
Eimeria mitis [5] = assay: Anticoccidial activity against Eimeria mitis in chickens assessed as reduction of oocysts at 3.1 ppm measured after 8 days by ExMAC assay relative to untreated control; assay type: functional; design: scale not given: the % may be the effect or the level left
Eimeria maxima [6] = assay: Anticoccidial activity against Eimeria maxima in chickens assessed as reduction of oocysts at 6.25 ppm measured after 8 days by ExMAC assay relative to untreated control; assay type: functional; design: scale not given: the % may be the effect or the level left
Eimeria maxima [7] = assay: Anticoccidial activity against Eimeria maxima in chickens assessed as reduction of oocysts at 3.1 ppm measured after 8 days by ExMAC assay relative to untreated control; assay type: functional; design: scale not given: the % may be the effect or the level left
Eimeria tenella [8] = assay: Anticoccidial activity against Eimeria tenella in chickens assessed as reduction of oocysts at 3.1 ppm measured after 8 days by ExMAC assay relative to untreated control; assay type: functional; design: scale not given: the % may be the effect or the level left
Eimeria acervulina [9] = assay: Anticoccidial activity against Eimeria acervulina in chickens assessed as reduction of oocysts at 6.25 ppm measured after 8 days by ExMAC assay relative to untreated control; assay type: functional; design: scale not given: the % may be the effect or the level left
Eimeria tenella [10] = assay: Anticoccidial activity against Eimeria tenella in chickens assessed as reduction of oocysts at 4 ppm measured after 8 days by ExMAC assay relative to untreated control; assay type: functional; design: scale not given: the % may be the effect or the level left
Eimeria mitis [11] = assay: Anticoccidial activity against Eimeria mitis in chickens assessed as reduction of oocysts at 1 ppm measured after 8 days by ExMAC assay relative to untreated control; assay type: functional; design: scale not given: the % may be the effect or the level left
Eimeria acervulina [12] = assay: Anticoccidial activity against Eimeria acervulina in chickens assessed as reduction of oocysts at 4 ppm measured after 8 days by ExMAC assay relative to untreated control; assay type: functional; design: scale not given: the % may be the effect or the level left
Eimeria mitis [13] = assay: Anticoccidial activity against Eimeria mitis in chickens assessed as reduction of oocysts at 4 ppm measured after 8 days by ExMAC assay relative to untreated control; assay type: functional; design: scale not given: the % may be the effect or the level left
Eimeria acervulina [14] = assay: Anticoccidial activity against Eimeria acervulina in chickens assessed as reduction of oocysts at 2 ppm measured after 8 days by ExMAC assay relative to untreated control; assay type: functional; design: scale not given: the % may be the effect or the level left
Eimeria tenella [15] = assay: Anticoccidial activity against Eimeria tenella in chickens assessed as reduction of oocysts at 2 ppm measured after 8 days by ExMAC assay relative to untreated control; assay type: functional; design: scale not given: the % may be the effect or the level left
Eimeria mitis [16] = assay: Anticoccidial activity against Eimeria mitis in chickens assessed as reduction of oocysts at 2 ppm measured after 8 days by ExMAC assay relative to untreated control; assay type: functional; design: scale not given: the % may be the effect or the level left
Eimeria maxima [17] = assay: Anticoccidial activity against Eimeria maxima in chickens assessed as reduction of oocysts at 1 ppm measured after 8 days by ExMAC assay relative to untreated control; assay type: functional; design: scale not given: the % may be the effect or the level left
Eimeria tenella [18] = assay: Anticoccidial activity against Eimeria tenella in chickens assessed as reduction of oocysts at 1 ppm measured after 8 days by ExMAC assay relative to untreated control; assay type: functional; design: scale not given: the % may be the effect or the level left
Eimeria maxima [19] = assay: Anticoccidial activity against Eimeria maxima in chickens assessed as reduction of oocysts at 4 ppm measured after 8 days by ExMAC assay relative to untreated control; assay type: functional; design: scale not given: the % may be the effect or the level left
Eimeria maxima [20] = assay: Anticoccidial activity against Eimeria maxima in chickens assessed as reduction of oocysts at 2 ppm measured after 8 days by ExMAC assay relative to untreated control; assay type: functional; design: scale not given: the % may be the effect or the level left
Eimeria acervulina [21] = assay: Anticoccidial activity against Eimeria acervulina in chickens assessed as reduction of oocysts at 1 ppm measured after 8 days by ExMAC assay relative to untreated control; assay type: functional; design: scale not given: the % may be the effect or the level left
Eimeria acervulina [22] = assay: Anticoccidial activity against Eimeria acervulina in chickens assessed as reduction of oocysts at 6 ppm measured after 8 days by ExMAC assay relative to untreated control; assay type: functional; design: scale not given: the % may be the effect or the level left
Eimeria acervulina [23] = assay: Anticoccidial activity against Eimeria acervulina in chickens assessed as reduction of oocysts at 8 ppm measured after 8 days by ExMAC assay relative to untreated control; assay type: functional; design: scale not given: the % may be the effect or the level left
Eimeria acervulina [24] = assay: Anticoccidial activity against Eimeria acervulina in chickens assessed as reduction of oocysts at 10 ppm measured after 8 days by ExMAC assay relative to untreated control; assay type: functional; design: scale not given: the % may be the effect or the level left
Eimeria mitis [25] = assay: Anticoccidial activity against Eimeria mitis in chickens assessed as reduction of oocysts at 25 ppm measured after 8 days by ExMAC assay relative to untreated control; assay type: functional; design: scale not given: the % may be the effect or the level left
Eimeria acervulina [26] = assay: Anticoccidial activity against Eimeria acervulina in chickens assessed as reduction of oocysts at 25 ppm measured after 8 days by ExMAC assay relative to untreated control; assay type: functional; design: scale not given: the % may be the effect or the level left
Eimeria maxima [27] = assay: Anticoccidial activity against Eimeria maxima in chickens assessed as reduction of oocysts at 12.5 ppm measured after 8 days by ExMAC assay relative to untreated control; assay type: functional; design: scale not given: the % may be the effect or the level left
Eimeria tenella [28] = assay: Anticoccidial activity against Eimeria tenella in chickens assessed as reduction of oocysts at 8 ppm measured after 8 days by ExMAC assay relative to untreated control; assay type: functional; design: scale not given: the % may be the effect or the level left
Eimeria mitis [29] = assay: Anticoccidial activity against Eimeria mitis in chickens assessed as reduction of oocysts at 12.5 ppm measured after 8 days by ExMAC assay relative to untreated control; assay type: functional; design: scale not given: the % may be the effect or the level left
Eimeria mitis [30] = assay: Anticoccidial activity against Eimeria mitis in chickens assessed as reduction of oocysts at 8 ppm measured after 8 days by ExMAC assay relative to untreated control; assay type: functional; design: scale not given: the % may be the effect or the level left
Eimeria maxima [31] = assay: Anticoccidial activity against Eimeria maxima in chickens assessed as reduction of oocysts at 10 ppm measured after 8 days by ExMAC assay relative to untreated control; assay type: functional; design: scale not given: the % may be the effect or the level left
Eimeria tenella [32] = assay: Anticoccidial activity against Eimeria tenella in chickens assessed as reduction of oocysts at 25 ppm measured after 8 days by ExMAC assay relative to untreated control; assay type: functional; design: scale not given: the % may be the effect or the level left
Eimeria maxima [33] = assay: Anticoccidial activity against Eimeria maxima in chickens assessed as reduction of oocysts at 25 ppm measured after 8 days by ExMAC assay relative to untreated control; assay type: functional; design: scale not given: the % may be the effect or the level left
Eimeria maxima [34] = assay: Anticoccidial activity against Eimeria maxima in chickens assessed as reduction of oocysts at 6 ppm measured after 8 days by ExMAC assay relative to untreated control; assay type: functional; design: scale not given: the % may be the effect or the level left
Eimeria tenella [35] = assay: Anticoccidial activity against Eimeria tenella in chickens assessed as reduction of oocysts at 6 ppm measured after 8 days by ExMAC assay relative to untreated control; assay type: functional; design: scale not given: the % may be the effect or the level left
Eimeria tenella [36] = assay: Anticoccidial activity against Eimeria tenella in chickens assessed as reduction of oocysts at 10 ppm measured after 8 days by ExMAC assay relative to untreated control; assay type: functional; design: scale not given: the % may be the effect or the level left
Eimeria maxima [37] = assay: Anticoccidial activity against Eimeria maxima in chickens assessed as reduction of oocysts at 8 ppm measured after 8 days by ExMAC assay relative to untreated control; assay type: functional; design: scale not given: the % may be the effect or the level left
Eimeria acervulina [38] = assay: Anticoccidial activity against Eimeria acervulina in chickens assessed as reduction of oocysts at 12.5 ppm measured after 8 days by ExMAC assay relative to untreated control; assay type: functional; design: scale not given: the % may be the effect or the level left
Eimeria mitis [39] = assay: Anticoccidial activity against Eimeria mitis in chickens assessed as reduction of oocysts at 6 ppm measured after 8 days by ExMAC assay relative to untreated control; assay type: functional; design: scale not given: the % may be the effect or the level left
Eimeria mitis [40] = assay: Anticoccidial activity against Eimeria mitis in chickens assessed as reduction of oocysts at 10 ppm measured after 8 days by ExMAC assay relative to untreated control; assay type: functional; design: scale not given: the % may be the effect or the level left
Eimeria tenella [41] = assay: Anticoccidial activity against Eimeria tenella in chickens assessed as reduction of oocysts at 12.5 ppm measured after 8 days by ExMAC assay relative to untreated control; assay type: functional; design: scale not given: the % may be the effect or the level left
Eimeria acervulina [42] = assay: Anticoccidial activity against Eimeria acervulina in chickens assessed as reduction of oocysts at 50 ppm measured after 8 days by ExMAC assay relative to untreated control; assay type: functional; design: scale not given: the % may be the effect or the level left
Eimeria maxima [43] = assay: Anticoccidial activity against Eimeria maxima in chickens assessed as reduction of oocysts at 50 ppm measured after 8 days by ExMAC assay relative to untreated control; assay type: functional; design: scale not given: the % may be the effect or the level left
Eimeria mitis [44] = assay: Anticoccidial activity against Eimeria mitis in chickens assessed as reduction of oocysts at 50 ppm measured after 8 days by ExMAC assay relative to untreated control; assay type: functional; design: scale not given: the % may be the effect or the level left
Eimeria tenella [45] = assay: Anticoccidial activity against Eimeria tenella in chickens assessed as reduction of oocysts at 50 ppm measured after 8 days by ExMAC assay relative to untreated control; assay type: functional; design: scale not given: the % may be the effect or the level left

cGMP-dependent protein kinase, sequence (Q8MMZ8 whole entry): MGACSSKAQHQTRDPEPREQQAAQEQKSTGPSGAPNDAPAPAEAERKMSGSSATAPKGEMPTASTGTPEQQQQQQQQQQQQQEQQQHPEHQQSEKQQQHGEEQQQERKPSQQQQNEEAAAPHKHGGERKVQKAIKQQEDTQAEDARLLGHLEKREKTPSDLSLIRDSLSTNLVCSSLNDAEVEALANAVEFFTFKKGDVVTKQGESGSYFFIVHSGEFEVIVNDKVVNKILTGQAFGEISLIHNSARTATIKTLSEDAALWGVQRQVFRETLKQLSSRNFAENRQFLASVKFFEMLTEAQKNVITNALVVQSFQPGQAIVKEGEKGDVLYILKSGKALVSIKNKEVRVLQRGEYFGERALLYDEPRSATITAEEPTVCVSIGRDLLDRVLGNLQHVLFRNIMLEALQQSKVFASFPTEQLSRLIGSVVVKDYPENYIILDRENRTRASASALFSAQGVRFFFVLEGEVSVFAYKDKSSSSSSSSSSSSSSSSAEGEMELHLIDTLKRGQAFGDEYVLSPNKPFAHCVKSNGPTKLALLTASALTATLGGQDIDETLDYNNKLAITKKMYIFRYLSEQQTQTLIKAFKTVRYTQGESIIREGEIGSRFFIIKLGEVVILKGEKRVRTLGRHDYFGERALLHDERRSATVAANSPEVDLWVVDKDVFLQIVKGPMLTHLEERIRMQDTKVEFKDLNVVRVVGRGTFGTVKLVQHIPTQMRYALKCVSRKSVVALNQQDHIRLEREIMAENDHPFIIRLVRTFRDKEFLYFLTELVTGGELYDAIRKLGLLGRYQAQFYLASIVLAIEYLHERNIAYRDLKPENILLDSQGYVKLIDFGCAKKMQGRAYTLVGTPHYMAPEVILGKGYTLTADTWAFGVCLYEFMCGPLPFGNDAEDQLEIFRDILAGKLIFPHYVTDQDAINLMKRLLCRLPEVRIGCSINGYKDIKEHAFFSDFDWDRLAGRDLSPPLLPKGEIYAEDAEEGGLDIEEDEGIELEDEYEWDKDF

CC(c1ccn2c(-c3ccnc(N)n3)c(-c3ccc(F)cc3)nc2c1)N(C)C (stereo not drawn)
IC50 [1]: 0.09 nM
Activity (Eimeria mitis [2]): 100%
Activity (Eimeria tenella [3]): 100%
Activity (Eimeria acervulina [4]): 80%
Activity (Eimeria mitis [5]): 80%
Activity (Eimeria maxima [6]): <50%
Activity (Eimeria maxima [7]): 100%
Activity (Eimeria tenella [8]): 100%
Activity (Eimeria acervulina [9]): 100%

CC(c1ccn2c(-c3ccnc(N)n3)c(-c3ccc(F)cc3)nc2c1)N(C)C (single isomer, unassigned; enantiomer B)
Activity (Eimeria tenella [10]): 80%
Activity (Eimeria mitis [11]): <50%
Activity (Eimeria acervulina [12]): 80%
Activity (Eimeria mitis [13]): 80%
IC50 [1]: 0.067 nM
Activity (Eimeria acervulina [14]): 100%
Activity (Eimeria tenella [15]): 80%
Activity (Eimeria mitis [16]): 80%
Activity (Eimeria maxima [17]): 100%
Activity (Eimeria tenella [18]): 50%
Activity (Eimeria maxima [19]): 100%
Activity (Eimeria maxima [20]): 80%
Activity (Eimeria acervulina [21]): 80%

CC(c1ccn2c(-c3ccnc(N)n3)c(-c3ccc(F)cc3)nc2c1)N(C)C (single isomer, unassigned; enantiomer A)
Activity (Eimeria mitis [11]): 50%
Activity (Eimeria mitis [13]): <50%
IC50 [1]: 0.28 nM
Activity (Eimeria acervulina [14]): <50%
Activity (Eimeria tenella [15]): <50%
Activity (Eimeria mitis [16]): <50%
Activity (Eimeria maxima [17]): 50%
Activity (Eimeria maxima [19]): <50%
Activity (Eimeria maxima [20]): 50%
Activity (Eimeria acervulina [21]): <50%

CCN1CCC(c2ccn3c(-c4ccnc(N)n4)c(-c4ccc(F)cc4)nc3c2)CC1
Activity (Eimeria acervulina [22]): <50%
Activity (Eimeria acervulina [23]): 80%
Activity (Eimeria acervulina [24]): 80%
Activity (Eimeria mitis [25]): 100%
Activity (Eimeria acervulina [26]): 100%
Activity (Eimeria maxima [27]): 100%
IC50 [1]: 0.11 nM
Activity (Eimeria tenella [28]): 100%
Activity (Eimeria mitis [29]): 100%
Activity (Eimeria mitis [30]): 80%
Activity (Eimeria maxima [31]): 100%
Activity (Eimeria tenella [32]): 100%
Activity (Eimeria maxima [33]): 100%
Activity (Eimeria maxima [34]): <50%
Activity (Eimeria tenella [35]): 100%
Activity (Eimeria tenella [36]): 100%
Activity (Eimeria maxima [37]): 100%
Activity (Eimeria acervulina [38]): 80%
Activity (Eimeria mitis [39]): 80%
Activity (Eimeria mitis [40]): 80%
Activity (Eimeria tenella [41]): 100%

NC(=O)c1ccn2c(-c3ccnc(N)n3)c(-c3ccc(F)cc3)nc2c1
Activity (Eimeria acervulina [42]): <50%
IC50 [1]: 1.8 nM
Activity (Eimeria maxima [43]): 50%
Activity (Eimeria mitis [44]): <50%
Activity (Eimeria tenella [45]): 80%
